# US20260258084A1, “New Peptides as Selective IL-23 Receptor Antagonists” (Sanofi, priority 2022, published 2026)
# Starred links: 1 amine or outer side, 2 acyl side, 3 side chain; linkers in the order of their positions; H or OH if unused. Positions of bridges follow the written chain, without caps; N, C: chain ends. Non-standard residues stand in square brackets, D forms with d. Residues, ends and D or L forms follow the SMILES beside them. *: point of attachment. X5 = CN(C(=O)CCC(=O)[*:3])[C@@H](CS[*:2])C(=O)[*:1]; X6 = O=C(CCC(=O)[*:3])N[C@@H](CS[*:2])C(=O)[*:1]; Trp(7-Me) = Cc1cccc2c(C[C@H](N)C(=O)O)c[nH]c12; X1 = O=C(CCCCN[*:3])N[C@@H](CS[*:2])C(=O)[*:1]; αMeLys(Me2) = CN(C)CCCC[C@](C)(N)C(=O)O; 2Nal = N[C@@H](Cc1ccc2ccccc2c1)C(=O)O; d2Nal = N[C@H](Cc1ccc2ccccc2c1)C(=O)O; NMe5Ava = CN(CCCCC(=O)[*:2])[*:1]; 3Pal = N[C@@H](Cc1cccnc1)C(=O)O; Lys(Me) = CNCCCC[C@H](N)C(=O)O; αMeL = CC(C)C[C@](C)(N)C(=O)O; Suc = O=C(CCC(=O)[*:2])[*:1]; Me2NCH2CH2 = CN(C)CC*; Aib = CC(C)(N)C(=O)O; Ahx = NCCCCCC(=O)O; Ava = NCCCCC(=O)O; Sar = CNCC(=O)O
# Assays:
# Pancreatin = test: Protease stability in simulated intestinal fluid (Pancreatin-SIF, FaSSIF); format: in vitro ADME; details: 1 μM peptide, 37° C.; for remaining at 1 h, 1 µM: 60 min, read-out: FaSSIF 60 (min), remaining percent of peptide; for remaining at 2 h, 1 µM: 120 min, read-out: FaSSIF 120 (min), remaining percent of peptide; for remaining at 4 h, 1 µM: 240 min, read-out: FaSSIF 240 (min), remaining percent of peptide
# In short: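 LC-MS/MS peak areas at 0, 60, 120 and 240 min, normalised to time 0 as 100%, give percent remaining. Reactions used 1 μM final peptide at 37° C in pancreatin-SIF (1 mg pancreatin in 10 mL SIF concentrate) and were stopped with ethanol containing 0.1% HCOOH.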
# [1] = target: T1, human interleukin-23 receptor (recombinant human IL-23R-Fc chimera) (Homo sapiens, UniProt Q5VWK5); test: Human ELISA IL23/IL23R (assay for specific human IL23R antagonists); format: binding; details: Table 10; read-out: Human ELISA IL23/IL23R IC50
# T1 construct: Fc (IgG Fc fusion)
# In short: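 Competition format: peptide dilutions compete for IL23R-Fc chimera (0.1 μg/ml final, 60 min, room temperature) binding to immobilized human IL23 coated at […] overnight at 4 °C. Read-out is fluorogenic HRP signal from goat anti-hu-IgG1 detecting captured receptor.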
# Pepsin = test system: T2, Pepsin; test: Protease stability in simulated gastric fluid (Pepsin-SGF, FaSSGF); format: in vitro ADME; details: simulated gastric fluid with pepsin (Pepsin-SGF), 60 min, 1 μM peptide, 37° C., read-out: FaSSGF 60 (min), remaining percent of peptide
# T2 construct: purchased Merck Millipore
# In short: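 LCMS/MS peak areas, normalised to the time-0 sample as 100%, give percent remaining. Conditions: 37° C incubation of 1 μM final peptide in simulated gastric fluid with pepsin; ethanol/0.1% HCOOH quench at 0, 60, 120, 240 min.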
# [2] = test system: IL-23 induced STAT3 signaling in HEK-Blue™ IL-23 cells; test: IL-23 induced STAT3 signaling in HEK-Blue IL-23 cells (SEAP reporter); format: cell-based; details: human IL23 0.25 ng/ml, read-out: pSTAT3
# In short: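 Secreted SEAP, read at OD 620-655 nm after 45 min QUANTI-Blue development, reports STAT3 activation. Beforehand, cells were exposed to peptide dilutions for 60 min at 37 °C and then to 0.25 ng/ml final human IL-23 overnight, at 10,000 cells/well.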
SMILES,"remaining at 1 h, 1 µM (Pancreatin)","remaining at 2 h, 1 µM (Pancreatin)","remaining at 4 h, 1 µM (Pancreatin)",IC50 [1],"remaining at 1 h, 1 µM (Pepsin)",IC50 [2]
CC(C)C[C@]1(C)NC(=O)[C@H](Cc2ccc3ccccc3c2)NC(=O)[C@H](Cc2ccc(OCCN(C)C)cc2)NC(=O)[C@@H]2CSSC[C@H](NC(=O)CCCCN(C)C(=O)CC[C@@H](C(=O)N[C@@H](CC(N)=O)C(=O)N[C@@H](CC(N)=O)C(N)=O)NC1=O)C(=O)N[C@@H](CC(N)=O)C(=O)N[C@@H]([C@@H](C)O)C(=O)N[C@@H](Cc1c[nH]c3ccccc13)C(=O)N[C@@H](CCC(N)=O)C(=O)N2 [compound 41] ([NMe5Ava]CNTWQCY(Me2NCH2CH2)[2Nal][αMeL]ENN-NH2; disulfide 2-7; lactam N-11),83%,71%,57%,0.35 nM,90%,1.6 nM
CC(=O)NCCCC[C@@H]1NC(=O)[C@H](Cc2c[nH]c3c(C)cccc23)NC(=O)[C@@H](NC(C)=O)CCCCNC(=O)[C@@H]2CSSC[C@H](NC1=O)C(=O)N[C@@H](Cc1ccc(OCCN(C)C)cc1)C(=O)N[C@@H](Cc1ccc3ccccc3c1)C(=O)NC(C)(C)C(=O)N[C@H](C(=O)N[C@@H](CC(N)=O)C(=O)N[C@@H](Cc1cccnc1)C(=O)N(C)CC(N)=O)CCC(=O)NCCCCC(=O)N2 [compound 72] (Ac-K[Trp(7-Me)]K(Ac)CY(Me2NCH2CH2)[2Nal][Aib]EN[3Pal][Sar]-NH2; linker 1-4-8 via X1),91%,90%,83%,0.59 nM,92%,0.12 nM
CC(=O)N[C@H]1CCCCNC(=O)[C@@H]2CSSC[C@H](NC(=O)[C@H](CC(C)C)NC(=O)[C@H](Cc3c[nH]c4c(C)cccc34)NC1=O)C(=O)N[C@@H](Cc1ccc(OCCN(C)C)cc1)C(=O)N[C@@H](Cc1ccc3ccccc3c1)C(=O)N[C@@](C)(CC(C)C)C(=O)N[C@H](C(=O)N[C@@H](CC(N)=O)C(=O)N[C@@H](Cc1cccnc1)C(=O)N(C)CC(N)=O)CCCCN(C)C(=O)CCC(=O)N2C [compound 69] (Ac-K[Trp(7-Me)]LCY(Me2NCH2CH2)[2Nal][αMeL][Lys(Me)]N[3Pal][Sar]-NH2; linker 1-4-8 via X5),97%,89%,83%,2.17 nM,79%,3.07 nM
CC(=O)N[C@H]1CCCCNC(=O)[C@@H]2CSSC[C@H](NC(=O)[C@H](CCC(N)=O)NC(=O)[C@H](Cc3c[nH]c4ccccc34)NC1=O)C(=O)N[C@@H](Cc1ccc(OCCN(C)C)cc1)C(=O)N[C@@H](Cc1ccc3ccccc3c1)C(=O)NC(C)(C)C(=O)N[C@H](C(=O)N[C@@H](CC(N)=O)C(=O)NCC(N)=O)CCC(=O)NCCCCC(=O)N2 [compound 29] (Ac-KWQCY(Me2NCH2CH2)[2Nal][Aib]ENG-NH2; linker 1-4-8 via X1),73%,58%,47%,0.45 nM,70%,8.16 nM
CC(=O)NCCCC[C@@H]1NC(=O)[C@H](Cc2c[nH]c3c(C)cccc23)NC(=O)[C@@H](NC(C)=O)CCCCNC(=O)[C@@H]2CSSC[C@H](NC1=O)C(=O)N[C@@H](Cc1ccc(OCCN(C)C)cc1)C(=O)N[C@H](Cc1ccc3ccccc3c1)C(=O)N[C@@](C)(CCCCN(C)C)C(=O)N[C@H](C(=O)N[C@@H](CC(N)=O)C(=O)N[C@@H](Cc1cccnc1)C(=O)N(C)CC(N)=O)CCC(=O)NCCCCC(=O)N2 [compound 149] (Ac-K[Trp(7-Me)]K(Ac)CY(Me2NCH2CH2)[d2Nal][αMeLys(Me2)]EN[3Pal][Sar]-NH2; linker 1-4-8 via X1),95%,99%,97%,0.64 nM,101%,0.04 nM
CC(=O)NCCCC[C@@H]1NC(=O)[C@H](Cc2c[nH]c3c(C)cccc23)NC(=O)[C@H]([C@@H](C)O)NC(=O)[C@H](CC(N)=O)NC(=O)[C@@H]2CSSC[C@H](NC1=O)C(=O)N[C@@H](Cc1ccc(OCCN(C)C)cc1)C(=O)N[C@@H](Cc1ccc3ccccc3c1)C(=O)N[C@@](C)(CC(C)C)C(=O)N[C@H](C(=O)N[C@@H](CC(N)=O)C(=O)N[C@@H](Cc1cccnc1)C(=O)N(C)CC(N)=O)CCCCNC(=O)CCC(=O)N2 [compound 103] (CNT[Trp(7-Me)]K(Ac)CY(Me2NCH2CH2)[2Nal][αMeL]KN[3Pal][Sar]-NH2; disulfide 1-6; linker N-10 via Suc),75%,73%,67%,0.56 nM,89%,0.11 nM
CC(=O)NCCCC[C@@H]1NC(=O)[C@H](Cc2c[nH]c3ccccc23)NC(=O)[C@H]([C@@H](C)O)NC(=O)[C@H](CC(N)=O)NC(=O)[C@@H]2CSSC[C@H](NC1=O)C(=O)N[C@@H](Cc1ccc(OCCN(C)C)cc1)C(=O)N[C@@H](Cc1ccc3ccccc3c1)C(=O)N[C@@](C)(CCCCN(C)C)C(=O)N[C@H](C(=O)N[C@@H](CC(N)=O)C(=O)N[C@@H](Cc1cccnc1)C(=O)N(C)CC(N)=O)CCC(=O)NCCCCC(=O)N2 [compound 58] ([Ava]CNTWK(Ac)CY(Me2NCH2CH2)[2Nal][αMeLys(Me2)]EN[3Pal][Sar]-NH2; disulfide 2-7; lactam N-11),100%,98%,80%,0.16 nM,93%,0.1 nM
CC(=O)N[C@H]1CCCCNC(=O)[C@@H]2CSSC[C@H](NC(=O)[C@H](CC(C)C)NC(=O)[C@H](Cc3c[nH]c4c(C)cccc34)NC1=O)C(=O)N[C@@H](Cc1ccc(OCCN(C)C)cc1)C(=O)N[C@@H](Cc1ccc3ccccc3c1)C(=O)N[C@@](C)(CC(C)C)C(=O)N[C@H](C(=O)N[C@@H](CC(N)=O)C(=O)N[C@@H](Cc1cccnc1)C(=O)N(C)CC(N)=O)CCCCN(C)C(=O)CCC(=O)N2 [compound 68] (Ac-K[Trp(7-Me)]LCY(Me2NCH2CH2)[2Nal][αMeL][Lys(Me)]N[3Pal][Sar]-NH2; linker 1-4-8 via X6),91%,91%,86%,1.48 nM,39%,2.69 nM
CC[C@H](C)[C@H](NC(=O)[C@H](CC(N)=O)NC(=O)[C@H](CC(N)=O)NC(=O)[C@@H]1CCC(=O)NCCCCC(=O)N[C@H]2CSSC[C@H](NC(=O)[C@H](CCC(N)=O)NC(=O)[C@H](Cc3c[nH]c4ccccc34)NC(=O)[C@H]([C@@H](C)O)NC(=O)[C@H](CC(N)=O)NC2=O)C(=O)N[C@@H](Cc2ccc(OCCN(C)C)cc2)C(=O)N[C@@H](Cc2ccc3ccccc3c2)C(=O)NC(C)(C)C(=O)N1)C(N)=O [compound 57] ([Ava]CNTWQCY(Me2NCH2CH2)[2Nal][Aib]ENNI-NH2; disulfide 2-7; lactam N-11),95%,80%,52%,0.23 nM,61%,5.5 nM
COc1ccc(C[C@@H]2NC(=O)[C@@H]3CSSC[C@H](NC(=O)CCCCCNC(=O)C[C@@H](C(=O)N[C@@H](CC(N)=O)C(=O)N[C@@H](CC(N)=O)C(N)=O)NC(=O)C(C)(C)NC(=O)[C@H](Cc4ccc5ccccc5c4)NC2=O)C(=O)N[C@@H](CC(N)=O)C(=O)N[C@@H]([C@@H](C)O)C(=O)N[C@@H](Cc2c[nH]c4ccccc24)C(=O)N[C@@H](CCC(N)=O)C(=O)N3)cc1 [compound 3] ([Ahx]CNTWQCY(Me)[2Nal][Aib]DNN-NH2; disulfide 2-7; lactam N-11),76%,64%,38%,0.7 nM,1%,17.2 nM
Cc1cccc2c(C[C@@H]3NC(=O)[C@H]([C@@H](C)O)NC(=O)[C@H](CC(N)=O)NC(=O)[C@@H]4CSSC[C@H](NC(=O)[C@H](CCC(N)=O)NC3=O)C(=O)N[C@@H](Cc3ccc(OCCN(C)C)cc3)C(=O)N[C@@H](Cc3ccc5ccccc5c3)C(=O)NC(C)(C)C(=O)N[C@H](C(=O)N[C@@H](CC(N)=O)C(=O)N[C@@H](Cc3cccnc3)C(=O)N(C)CC(N)=O)CCC(=O)NCCCCC(=O)N4)c[nH]c12 [compound 62] ([Ava]CNT[Trp(7-Me)]QCY(Me2NCH2CH2)[2Nal][Aib]EN[3Pal][Sar]-NH2; disulfide 2-7; lactam N-11),95%,87%,84%,0.35 nM,100%,0.2 nM
